# Assay results: US8568987B2, “Chemotaxis diagnostic” (Glycotope Biotechnology GmbH, priority 2000, dated 2013)
# Assays:
# [1] = tested on: neutrophilic granulocytes (LECAM-1 surface expression); test: Granulocyte chemotaxis test from leukocyte-rich plasma: LECAM-1 surface expression by flow-through cytometry; format: cell-based, human; conditions: 5×10^−8 M fMLP vs negative control containing PBS; FIG. 3A/3B
# Description: (§1) 1 ml of Ficoll (Ficoll separation medium, from Seromed, order No. L6113 (endotoxin-low)) is initially introduced in an Eppendorf tube and 1 ml of fresh (preferably not older than 8 hours) heparinized whole blood (endotoxin-low heparin) is carefully overlaid at room temperature. The mixture is allowed to stand at room temperature until a marked phase separation can be observed. After a spontaneous sedimentation, normally lasting for about 40 minutes at room temperature, the leukocytes and platelets remain above the Ficoll phase while the erythrocytes have sedimented to the bottom. The sinking of the erythrocytes occurs quite suddenly after from approx. 30 to 40 minutes. […]
# (§2) 20 μl of LDS (laser dye LDS 751, from Exiton or Styryl 8, from Lambda Physik, Göttingen; for excluding the erythrocytes, 1 mg/ml, prediluted 1:50 in PBS) are added to the solution. […] The measurement is stopped after in each case 1000 or 2000 latex particles have been recorded, such that approx. 5000-15 000 neutrophils have been counted. […] The sheath fluid employed is FACS Flow (from Becton Dickinson, order No. 342003) or another carrier fluid having a low intrinsic fluorescence. […] The calibration and quality control for fluorescence measurements (intensity per cell) are carried out using the Calibrites. […]
# [2] = tested on: neutrophilic granulocytes; test: Granulocyte chemotaxis test: number of cells migrated through porous membrane, counted against beads by flow-through cytometry; format: cell-based, human; conditions: 5×10^−8 M fMLP vs negative control containing PBS; FIG. 3B
# Description: as §1, §2
substance,measurement,setting,value
N-formyl-Met-Leu-Phe [fMLP],decrease in the surface expression of the cell adhesion molecule LECAM-1,[1],about one order of magnitude
same,"number of neutrophilic granulocyte cells which have migrated through the membrane, in relation to constant number of beads",[2],marked increase
